Source: PubChem BioAssay AID328 (DTP/NCI, 2004)
“And” between values parts separate entries of the source, which are not always exact repeats. Equal entries are not always repeated. Inconclusive results and toxic doses are left out. How the source made its calls: active means survival T/C of 150% or more; inactive means T/C below 125% in these data.

Tested on: BDF1 mice, P388 leukemia ip, median survival T/C
Assay: NCI In Vivo Anticancer Drug Screen. Data for tumor model P388 Leukemia (intraperitoneal) in B6D2F1 (BDF1) mice
Conditions: endpoint: median survival time, higher = longer survival
Outline: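 Read-out is survival of treated animals expressed relative to the vehicle group, as a T/C ratio.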

[1] = dose: 50.0 mg/kg/injection, schedule: Q01DX009 (ip), vehicle: Klucel (hydroxypropylcellulose) (HPC)
[2] = dose: 50.0 mg/kg/injection, schedule: Q01DX009 (ip), vehicle: saline with Tween-80
[3] = dose: 100.0 mg/kg/injection, schedule: Q01DX009 (ip), vehicle: saline with Tween-80
[4] = dose: 200.0 mg/kg/injection, schedule: Q01DX009 (ip), vehicle: saline with Tween-80
[5] = dose: 100.0 mg/kg/injection, schedule: Q04DX003 (ip), vehicle: saline
[6] = dose: 200.0 mg/kg/injection, schedule: Q04DX003 (ip), vehicle: saline
[7] = dose: 400.0 mg/kg/injection, schedule: Q04DX003 (ip), vehicle: saline
[8] = dose: 100.0 mg/kg/injection, schedule: Q01DX009 (ip), vehicle: Klucel (hydroxypropylcellulose) (HPC)
[9] = dose: 25.0 mg/kg/injection, schedule: Q01DX009 (ip), vehicle: saline
[10] = dose: 200.0 mg/kg/injection, schedule: Q01DX009 (ip), vehicle: saline
[11] = dose: 100.0 mg/kg/injection, schedule: Q04DX003 (ip), vehicle: Klucel (hydroxypropylcellulose) (HPC)
[12] = dose: 200.0 mg/kg/injection, schedule: Q04DX003 (ip), vehicle: Klucel (hydroxypropylcellulose) (HPC)
[13] = dose: 400.0 mg/kg/injection, schedule: Q04DX003 (ip), vehicle: Klucel (hydroxypropylcellulose) (HPC)

Measured: T/C

Cc1cc(O)c2c(c1O)C(=O)C13C(=C2O)C(=O)C2C(O)C1C1C(O)C3C(=O)C3=C(O)c4c(O)cc(C)c(O)c4C(=O)C321 (configuration not stated)
inactive: dose: 2.6 mg/kg/injection, schedule: Q04DX003 (ip), vehicle: saline with Tween-80 113 % of control | dose: 4.0 mg/kg/injection, schedule: Q04DX003 (ip), vehicle: saline with Tween-80 118 % of control

C/C(=N\N1CCCCCC1)c1ccccc1
inactive: dose: 50.0 mg/kg/injection, schedule: Q04DX003 (sc), vehicle: olive oil, sesame oil, peanut oil 95 % of control | dose: 100.0 mg/kg/injection, schedule: Q04DX003 (sc), vehicle: olive oil, sesame oil, peanut oil 95 % of control | dose: 200.0 mg/kg/injection, schedule: Q04DX003 (sc), vehicle: olive oil, sesame oil, peanut oil 91 % of control

Cc1n[nH]c(=S)[nH]c1=S
inactive: dose: 25.0 mg/kg/injection, schedule: Q04DX003 (ip), vehicle: saline with Tween-80 109 % of control | dose: 50.0 mg/kg/injection, schedule: Q04DX003 (ip), vehicle: saline with Tween-80 100 % of control | dose: 100.0 mg/kg/injection, schedule: Q04DX003 (ip), vehicle: saline with Tween-80 104 % of control

O=S1(=O)CCN(C2CC2)CC1
inactive: [1] 104 % of control

CC1(O)c2cccc(Sc3ccccc3)c2C(C)(O)c2c(Sc3ccccc3)cccc21 (configuration not stated)
inactive: [2] 107 % of control | [3] 99 % of control | [4] 98 % of control

CC(C)=CCO
inactive: [5] 100 % of control | [6] 104 % of control | [7] 104 % of control

O=C1OC(=O)C2C1C(c1ccc([N+](=O)[O-])cc1)N1C3C(=O)OC(=O)C3C(c3ccc([N+](=O)[O-])cc3)N21 (configuration not stated)
inactive: [2] 97 % of control | [3] 99 % of control | [4] 92 % of control

NC(Cc1ccc(OC2CCCC2)c(N(CCCl)CCCl)c1)C(=O)O (configuration not stated)
inactive: dose: 0.5 mg/kg/injection, schedule: Q04DX003 (ip), vehicle: Klucel (hydroxypropylcellulose) (HPC) 104 % of control | dose: 1.0 mg/kg/injection, schedule: Q04DX003 (ip), vehicle: Klucel (hydroxypropylcellulose) (HPC) 118 % of control | dose: 20.0 mg/kg/injection, schedule: Q04DX003 (ip), vehicle: other 87 % of control
active: dose: 2.5 mg/kg/injection, schedule: Q04DX003 (ip), vehicle: saline 195 % of control | dose: 5.0 mg/kg/injection, schedule: Q04DX003 (ip), vehicle: saline 227 % of control | dose: 7.5 mg/kg/injection, schedule: Q04DX003 (ip), vehicle: saline 163 % of control | dose: 15.0 mg/kg/injection, schedule: Q04DX003 (ip), vehicle: other 179 % of control | dose: 15.0 mg/kg/injection, schedule: Q04DX003 (ip), vehicle: saline 154 % of control | dose: 30.0 mg/kg/injection, schedule: Q04DX003 (ip), vehicle: saline 168 % of control

CC(=O)OCC1OC(N)C(OC(C)=O)C(OC(C)=O)C1OC(C)=O (configuration not stated)
inactive: [2] 97 % of control | [3] 92 % of control | [4] 96 % of control

C[C@]12CCC(=O)C=C1CC[C@@H]1[C@@H]2C(=O)C[C@]2(C)C3=CC(=O)O[C@H]3C[C@@H]12
inactive: dose: 12.5 mg/kg/injection, schedule: Q01DX009 (ip), vehicle: Klucel (hydroxypropylcellulose) (HPC) 109 % of control and 110 % of control | dose: 12.5 mg/kg/injection, schedule: Q04DX003 (ip), vehicle: Klucel (hydroxypropylcellulose) (HPC) 109 % of control | dose: 25.0 mg/kg/injection, schedule: Q01DX009 (ip), vehicle: Klucel (hydroxypropylcellulose) (HPC) 118 % of control and 120 % of control | dose: 25.0 mg/kg/injection, schedule: Q04DX003 (ip), vehicle: Klucel (hydroxypropylcellulose) (HPC) 113 % of control | [1] 86 % of control and 115 % of control | dose: 50.0 mg/kg/injection, schedule: Q04DX003 (ip), vehicle: Klucel (hydroxypropylcellulose) (HPC) 122 % of control | [8] 90 % of control

CC(=O)C(C)=P(c1ccccc1)(c1ccccc1)c1ccccc1
inactive: [9] 102 % of control | dose: 50.0 mg/kg/injection, schedule: Q01DX009 (ip), vehicle: saline 120 % of control | [10] 113 % of control | dose: 400.0 mg/kg/injection, schedule: Q01DX009 (ip), vehicle: saline 98 % of control

O=c1cc(-c2ccccc2)nc2c(Cl)cc(Cl)cn12
inactive: [11] 89 % of control | [12] 100 % of control | [13] 96 % of control

Cc1ccc(S(=O)(=O)N2CC(O)CC2C(=O)O)cc1 (configuration not stated)
inactive: dose: 100.0 mg/kg/injection, schedule: Q01DX001 (ip), vehicle: saline with Tween-80 118 % of control | dose: 200.0 mg/kg/injection, schedule: Q01DX001 (ip), vehicle: saline with Tween-80 100 % of control | dose: 400.0 mg/kg/injection, schedule: Q01DX001 (ip), vehicle: saline with Tween-80 113 % of control

CC(C)(C)OC(=O)NCC(=O)NNC(=O)OC(C)(C)C
inactive: [5] 104 % of control | [6] 113 % of control | [7] 104 % of control

O=C(O)C1CCC2CCCCC2[N-]1.O=C(O)C1CCC2CCCCC2[N-]1.[Cu+2] (configuration not stated)
inactive: dose: 6.25 mg/kg/injection, schedule: Q04DX003 (ip), vehicle: saline 100 % of control | dose: 12.5 mg/kg/injection, schedule: Q04DX003 (ip), vehicle: saline 90 % of control | dose: 25.0 mg/kg/injection, schedule: Q04DX003 (ip), vehicle: saline 100 % of control

NCCCNCCCCNCCCN
inactive: dose: 50.0 mg/kg/injection, schedule: Q01DX001 (ip), vehicle: saline 110 % of control

Nc1nc(N)c(N=O)c(Nc2ccc(Cl)c(Cl)c2)n1
inactive: [2] 109 % of control | [3] 109 % of control | [4] 95 % of control

COc1cccc(C(=O)O)c1OS(=O)(=O)c1ccccc1
inactive: [8] 104 % of control | [11] 110 % of control | dose: 200.0 mg/kg/injection, schedule: Q01DX009 (ip), vehicle: Klucel (hydroxypropylcellulose) (HPC) 95 % of control | [12] 90 % of control | dose: 400.0 mg/kg/injection, schedule: Q01DX009 (ip), vehicle: Klucel (hydroxypropylcellulose) (HPC) 90 % of control | [13] 105 % of control

CCC1c2ccc3cc(OC)ccc3c2CC1CC(=O)O (configuration not stated)
inactive: dose: 100.0 mg/kg/injection, schedule: Q01DX001 (ip), vehicle: other 100 % of control | dose: 200.0 mg/kg/injection, schedule: Q01DX001 (ip), vehicle: other 110 % of control | dose: 400.0 mg/kg/injection, schedule: Q01DX001 (ip), vehicle: other 105 % of control

CCN(CC)CCCC(C)NC(=O)c1ccc(N(C)C)nc1 (configuration not stated)
inactive: dose: 50.0 mg/kg/injection, schedule: Q01DX009 (ip), vehicle: water 93 % of control

CCC(=N\NC(=S)NCCN(C)C)/C(C)=N/NC(=S)NCCN(C)C
inactive: dose: 0.75 mg/kg/injection, schedule: Q04DX003 (ip), vehicle: saline 103 % of control | dose: 1.5 mg/kg/injection, schedule: Q04DX003 (ip), vehicle: saline 103 % of control | dose: 3.0 mg/kg/injection, schedule: Q04DX003 (ip), vehicle: saline 97 % of control

CC(C)C[C@H](O)C(=O)O
inactive: [9] 95 % of control | dose: 44.0 mg/kg/injection, schedule: Q01DX009 (ip), vehicle: saline 109 % of control | dose: 66.0 mg/kg/injection, schedule: Q01DX009 (ip), vehicle: saline 109 % of control | dose: 100.0 mg/kg/injection, schedule: Q01DX009 (ip), vehicle: saline 95 % of control and 120 % of control | dose: 150.0 mg/kg/injection, schedule: Q01DX009 (ip), vehicle: saline 118 % of control | [10] 95 % of control

Cc1cc(N)c(C)c([N+](=O)[O-])c1
inactive: [2] 100 % of control | [3] 100 % of control | [4] 95 % of control

CN=C(NC#N)NCCSCc1nc[nH]c1C
inactive: dose: 12.5 mg/kg/injection, schedule: Q01DX005 (ip), vehicle: Klucel (hydroxypropylcellulose) (HPC) 96 % of control | dose: 25.0 mg/kg/injection, schedule: Q01DX005 (ip), vehicle: Klucel (hydroxypropylcellulose) (HPC) 92 % of control and 116 % of control | dose: 50.0 mg/kg/injection, schedule: Q01DX005 (ip), vehicle: Klucel (hydroxypropylcellulose) (HPC) 101 % of control | dose: 100.0 mg/kg/injection, schedule: Q01DX005 (ip), vehicle: Klucel (hydroxypropylcellulose) (HPC) 93 % of control and 101 % of control | dose: 200.0 mg/kg/injection, schedule: Q01DX005 (ip), vehicle: Klucel (hydroxypropylcellulose) (HPC) 118 % of control | dose: 400.0 mg/kg/injection, schedule: Q01DX005 (ip), vehicle: Klucel (hydroxypropylcellulose) (HPC) 95 % of control

O=C(c1ccc(C(=O)N2CC2)cc1)N1CC1
inactive: dose: 5.0 mg/kg/injection, schedule: Q01DX009 (ip), vehicle: saline with Tween-80 95 % of control | dose: 20.0 mg/kg/injection, schedule: Q01DX009 (ip), vehicle: saline with Tween-80 109 % of control
